# Source: PubChem BioAssay AID1963979 (Molecular Pharmacology Branch, DTP, NCI, 2024)
# System: 361931-004-R-J1-PDC multicell spheroid viability
# Experiment: Anticancer human tumor 361931-004-R-J1-PDC patient-derived colon adenocarcinoma cell line growth inhibition [PI3K]
# Settings: for IC50: curve of first compound; for viability, T/C: stronger effect = lower value
# Procedure, shortened: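 Tumor cells grown as multi-cell spheroids with HUVEC endothelial cells and MSC fibroblast-like stroma were treated with targeted agents combined with inavolisib, alpelisib, duvelisib or copanlisib. Doses fell in half-log steps from near clinical Cmax, else from 10 microM. Viability was measured.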
# [1] = second compound 0.00316 µM, first compound 0.000316 µM
# [2] = second compound 0.00316 µM, first compound 0.001 µM
# [3] = second compound 0.00316 µM, first compound 0.00316 µM
# [4] = second compound 0.00316 µM, first compound 0.01 µM
# [5] = second compound 0.00316 µM, first compound 0.0316 µM
# [6] = second compound 0.00316 µM, first compound 0.1 µM
# [7] = second compound 0.01 µM, first compound 0.000316 µM
# [8] = second compound 0.01 µM, first compound 0.001 µM
# [9] = second compound 0.01 µM, first compound 0.00316 µM
# [10] = second compound 0.01 µM, first compound 0.01 µM
# [11] = second compound 0.01 µM, first compound 0.0316 µM
# [12] = second compound 0.01 µM, first compound 0.1 µM
# [13] = second compound 0.0316 µM, first compound 0.000316 µM
# [14] = second compound 0.0316 µM, first compound 0.001 µM
# [15] = second compound 0.0316 µM, first compound 0.00316 µM
# [16] = second compound 0.0316 µM, first compound 0.01 µM
# [17] = second compound 0.0316 µM, first compound 0.0316 µM
# [18] = second compound 0.0316 µM, first compound 0.1 µM
# [19] = second compound 0.1 µM, first compound 0.000316 µM
# [20] = second compound 0.1 µM, first compound 0.001 µM
# [21] = second compound 0.1 µM, first compound 0.00316 µM
# [22] = second compound 0.1 µM, first compound 0.01 µM
# [23] = second compound 0.1 µM, first compound 0.0316 µM
# [24] = second compound 0.1 µM, first compound 0.1 µM
# [25] = second compound 0.316 µM, first compound 0.000316 µM
# [26] = second compound 0.316 µM, first compound 0.001 µM
# [27] = second compound 0.316 µM, first compound 0.00316 µM
# [28] = second compound 0.316 µM, first compound 0.01 µM
# [29] = second compound 0.316 µM, first compound 0.0316 µM
# [30] = second compound 0.316 µM, first compound 0.1 µM
# [31] = second compound 1 µM, first compound 0.000316 µM
# [32] = second compound 1 µM, first compound 0.001 µM
# [33] = second compound 1 µM, first compound 0.00316 µM
# [34] = second compound 1 µM, first compound 0.01 µM
# [35] = second compound 1 µM, first compound 0.0316 µM
# [36] = second compound 1 µM, first compound 0.1 µM
# 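Note: spheroids exposed to agents for seven days before readout.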
smiles,measurement,setting,value
CC(=O)c1c(C)c2cnc(Nc3ccc(N4CCNCC4)cn3)nc2n(C2CCCC2)c1=O + COc1c(OCCCN2CCOCC2)ccc2c3n(c(=NC(=O)c4cnc(N)nc4)nc12)CCN3,IC50,second compound 0.00316 µM,> 100 nM
same,IC50,second compound 0.01 µM,> 100 nM
same,IC50,second compound 0.0316 µM,> 100 nM
same,IC50,second compound 0.1 µM,> 100 nM
same,IC50,second compound 0.316 µM,< 0.316 nM
same,IC50,second compound 1 µM,< 0.316 nM
same,"viability, T/C",[1],99.6%
same,"viability, T/C",[2],98.4%
same,"viability, T/C",[3],99.8%
same,"viability, T/C",[4],97%
same,"viability, T/C",[5],101%
same,"viability, T/C",[6],89.2%
same,"viability, T/C",[7],101%
same,"viability, T/C",[8],98.8%
same,"viability, T/C",[9],103%
same,"viability, T/C",[10],91.5%
same,"viability, T/C",[11],95.4%
same,"viability, T/C",[12],83.4%
same,"viability, T/C",[13],93.3%
same,"viability, T/C",[14],89.3%
same,"viability, T/C",[15],93.3%
same,"viability, T/C",[16],87.4%
same,"viability, T/C",[17],83.8%
same,"viability, T/C",[18],62.9%
same,"viability, T/C",[19],84.1%
same,"viability, T/C",[20],69.7%
same,"viability, T/C",[21],73.7%
same,"viability, T/C",[22],72.8%
same,"viability, T/C",[23],67.9%
same,"viability, T/C",[24],53.1%
same,"viability, T/C",[25],50.7%
same,"viability, T/C",[26],45.7%
same,"viability, T/C",[27],42.3%
same,"viability, T/C",[28],41.8%
same,"viability, T/C",[29],49.6%
same,"viability, T/C",[30],38.1%
same,"viability, T/C",[31],23.1%
same,"viability, T/C",[32],17.9%
same,"viability, T/C",[33],16.4%
same,"viability, T/C",[34],19.7%
same,"viability, T/C",[35],21%
same,"viability, T/C",[36],15.2%
CC(C)n1nc(-c2ccc3oc(N)nc3c2)c2c(N)ncnc21 + COc1c(OCCCN2CCOCC2)ccc2c3n(c(=NC(=O)c4cnc(N)nc4)nc12)CCN3,IC50,second compound 0.00316 µM,> 100 nM
same,IC50,second compound 0.01 µM,> 100 nM
same,IC50,second compound 0.0316 µM,78.3 nM
same,IC50,second compound 0.1 µM,51.8 nM
same,IC50,second compound 0.316 µM,4.51 nM
same,IC50,second compound 1 µM,< 0.316 nM
same,"viability, T/C",[1],99.9%
same,"viability, T/C",[2],108%
same,"viability, T/C",[3],101%
same,"viability, T/C",[4],106%
same,"viability, T/C",[5],108%
same,"viability, T/C",[6],77.5%
same,"viability, T/C",[7],106%
same,"viability, T/C",[8],102%
same,"viability, T/C",[9],99.3%
same,"viability, T/C",[10],100%
same,"viability, T/C",[11],99.2%
same,"viability, T/C",[12],57.6%
same,"viability, T/C",[13],94.1%
same,"viability, T/C",[14],98.7%
same,"viability, T/C",[15],89.2%
same,"viability, T/C",[16],94.2%
same,"viability, T/C",[17],85.6%
same,"viability, T/C",[18],40.4%
same,"viability, T/C",[19],80.8%
same,"viability, T/C",[20],85.5%
same,"viability, T/C",[21],79%
same,"viability, T/C",[22],72.8%
same,"viability, T/C",[23],62.9%
same,"viability, T/C",[24],34.1%
same,"viability, T/C",[25],64.7%
same,"viability, T/C",[26],56.3%
same,"viability, T/C",[27],54.2%
same,"viability, T/C",[28],43.9%
same,"viability, T/C",[29],35.5%
same,"viability, T/C",[30],22.4%
same,"viability, T/C",[31],20.8%
same,"viability, T/C",[32],20.7%
same,"viability, T/C",[33],22.3%
same,"viability, T/C",[34],20.9%
same,"viability, T/C",[35],20.2%
same,"viability, T/C",[36],10.6%
